# Source: US9580390B2, “Indazole compounds as kinase inhibitors and method of treating cancer with same” (University Health Network, priority 2011, dated 2017)
# How the values were obtained:
# JNK3 = target: T1, JNK3 (Homo sapiens, UniProt P53779); experiment: Panel of 270 human kinases (Millipore); assay type: biochemical
# T1 construct: purchased Millipore Corporation
# Protocol: (§1) The inhibitory activity of selected compounds of the invention (A335, A405, A410, A261, A300 and A363) was evaluated against a panel of 270 different human kinase enzymes by Millipore Corporation. The % Inhibition was determined by the formula: % Inhibition=100×(1−(experimental value−background value)/(high activity control−background value)).
# MUSK = target: T2, MUSK (Homo sapiens, UniProt O15146); experiment: Panel of 270 human kinases (Millipore); assay type: biochemical
# T2 construct: purchased Millipore Corporation
# T2 sequence (O15146 24-869): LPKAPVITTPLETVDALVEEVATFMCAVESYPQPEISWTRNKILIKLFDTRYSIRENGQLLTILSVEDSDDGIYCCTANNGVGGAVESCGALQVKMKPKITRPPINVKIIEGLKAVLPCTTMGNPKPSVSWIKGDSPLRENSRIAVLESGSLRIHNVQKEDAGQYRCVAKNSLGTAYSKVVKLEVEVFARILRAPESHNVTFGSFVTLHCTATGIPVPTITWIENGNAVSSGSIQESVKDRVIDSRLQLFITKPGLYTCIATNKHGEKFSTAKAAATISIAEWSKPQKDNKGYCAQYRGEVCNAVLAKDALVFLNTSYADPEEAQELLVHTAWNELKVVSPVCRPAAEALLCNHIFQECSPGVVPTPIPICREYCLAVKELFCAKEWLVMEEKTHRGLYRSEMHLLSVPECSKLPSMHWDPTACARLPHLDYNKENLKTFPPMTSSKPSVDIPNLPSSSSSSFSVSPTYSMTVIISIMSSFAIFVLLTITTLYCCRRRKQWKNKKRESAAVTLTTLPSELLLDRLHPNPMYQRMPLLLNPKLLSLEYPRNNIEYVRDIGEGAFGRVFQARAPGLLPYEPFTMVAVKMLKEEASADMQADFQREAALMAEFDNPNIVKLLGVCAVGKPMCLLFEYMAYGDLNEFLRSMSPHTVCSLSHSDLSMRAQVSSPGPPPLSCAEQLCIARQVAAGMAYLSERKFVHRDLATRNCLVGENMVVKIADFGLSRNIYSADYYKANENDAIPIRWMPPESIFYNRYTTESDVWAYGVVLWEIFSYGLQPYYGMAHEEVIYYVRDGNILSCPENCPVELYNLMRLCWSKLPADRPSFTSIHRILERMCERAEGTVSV
# Protocol: as §1
# ALK = target: T3, ALK (Homo sapiens, UniProt Q9UM73); experiment: Panel of 270 human kinases (Millipore); assay type: biochemical
# T3 construct: purchased Millipore Corporation
# T3 sequence (Q9UM73 19-1620): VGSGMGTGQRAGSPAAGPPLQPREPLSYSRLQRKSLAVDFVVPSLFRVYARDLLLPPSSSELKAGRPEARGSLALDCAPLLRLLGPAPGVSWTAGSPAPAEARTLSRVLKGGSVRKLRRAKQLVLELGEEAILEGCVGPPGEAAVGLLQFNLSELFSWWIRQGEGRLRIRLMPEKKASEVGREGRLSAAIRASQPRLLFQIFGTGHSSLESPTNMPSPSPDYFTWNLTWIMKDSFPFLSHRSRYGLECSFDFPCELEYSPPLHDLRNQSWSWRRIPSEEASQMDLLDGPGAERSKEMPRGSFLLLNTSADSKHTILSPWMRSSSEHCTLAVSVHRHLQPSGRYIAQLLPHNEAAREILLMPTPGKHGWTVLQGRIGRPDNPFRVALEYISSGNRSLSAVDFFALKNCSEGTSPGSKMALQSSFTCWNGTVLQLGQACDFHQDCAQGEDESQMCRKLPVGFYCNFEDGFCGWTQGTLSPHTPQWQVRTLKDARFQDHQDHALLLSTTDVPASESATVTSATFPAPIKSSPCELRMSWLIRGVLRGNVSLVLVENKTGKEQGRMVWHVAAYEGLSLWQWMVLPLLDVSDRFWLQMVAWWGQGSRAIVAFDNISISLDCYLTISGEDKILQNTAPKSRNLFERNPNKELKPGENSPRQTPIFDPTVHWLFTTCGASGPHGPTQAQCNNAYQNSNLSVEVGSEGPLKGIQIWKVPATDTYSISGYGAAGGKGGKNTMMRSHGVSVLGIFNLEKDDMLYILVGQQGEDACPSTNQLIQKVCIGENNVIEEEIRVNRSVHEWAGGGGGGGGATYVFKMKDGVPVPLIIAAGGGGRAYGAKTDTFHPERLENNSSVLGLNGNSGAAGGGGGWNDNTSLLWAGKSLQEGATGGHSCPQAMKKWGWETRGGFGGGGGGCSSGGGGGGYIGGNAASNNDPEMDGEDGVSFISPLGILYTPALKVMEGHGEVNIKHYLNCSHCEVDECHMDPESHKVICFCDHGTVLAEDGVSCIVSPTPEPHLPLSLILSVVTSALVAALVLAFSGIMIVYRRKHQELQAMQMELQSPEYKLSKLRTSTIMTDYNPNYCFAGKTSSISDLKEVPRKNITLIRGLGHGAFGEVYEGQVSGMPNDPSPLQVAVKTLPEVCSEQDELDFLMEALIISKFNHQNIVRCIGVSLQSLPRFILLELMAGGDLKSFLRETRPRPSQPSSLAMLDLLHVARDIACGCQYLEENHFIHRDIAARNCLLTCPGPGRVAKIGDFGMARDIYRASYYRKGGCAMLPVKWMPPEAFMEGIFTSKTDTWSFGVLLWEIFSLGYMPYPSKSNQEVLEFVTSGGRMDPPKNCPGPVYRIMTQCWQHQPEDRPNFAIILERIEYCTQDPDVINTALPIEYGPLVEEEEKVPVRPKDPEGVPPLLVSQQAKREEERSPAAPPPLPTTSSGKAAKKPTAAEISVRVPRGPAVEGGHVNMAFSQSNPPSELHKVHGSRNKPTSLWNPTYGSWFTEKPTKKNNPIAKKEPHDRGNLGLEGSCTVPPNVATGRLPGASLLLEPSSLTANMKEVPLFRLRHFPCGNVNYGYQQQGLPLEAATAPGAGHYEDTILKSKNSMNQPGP
# Protocol: as §1
# MAPK2 = target: T4, MAPK2 (Homo sapiens, UniProt P28482); experiment: Panel of 270 human kinases (Millipore); assay type: biochemical
# T4 construct: purchased Millipore Corporation
# T4 sequence (P28482 whole entry): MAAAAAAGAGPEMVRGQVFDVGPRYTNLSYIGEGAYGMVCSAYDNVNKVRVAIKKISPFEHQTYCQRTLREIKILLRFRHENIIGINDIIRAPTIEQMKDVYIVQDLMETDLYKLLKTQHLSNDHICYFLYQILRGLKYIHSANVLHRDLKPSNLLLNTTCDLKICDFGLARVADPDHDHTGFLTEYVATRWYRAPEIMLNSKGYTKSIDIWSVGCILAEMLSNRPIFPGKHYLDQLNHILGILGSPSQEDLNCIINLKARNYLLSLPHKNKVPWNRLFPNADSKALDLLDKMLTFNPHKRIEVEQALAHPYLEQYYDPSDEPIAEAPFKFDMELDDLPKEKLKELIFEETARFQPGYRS
# Protocol: as §1
# Met(Y1248C) = target: T5, Met(Y1248C) (Homo sapiens, UniProt P08581, Y1230C); experiment: Panel of 270 human kinases (Millipore); assay type: biochemical
# T5 construct: purchased Millipore Corporation
# T5 sequence (P08581 25-1408 isoform P08581-2 Y1248C limits assumed): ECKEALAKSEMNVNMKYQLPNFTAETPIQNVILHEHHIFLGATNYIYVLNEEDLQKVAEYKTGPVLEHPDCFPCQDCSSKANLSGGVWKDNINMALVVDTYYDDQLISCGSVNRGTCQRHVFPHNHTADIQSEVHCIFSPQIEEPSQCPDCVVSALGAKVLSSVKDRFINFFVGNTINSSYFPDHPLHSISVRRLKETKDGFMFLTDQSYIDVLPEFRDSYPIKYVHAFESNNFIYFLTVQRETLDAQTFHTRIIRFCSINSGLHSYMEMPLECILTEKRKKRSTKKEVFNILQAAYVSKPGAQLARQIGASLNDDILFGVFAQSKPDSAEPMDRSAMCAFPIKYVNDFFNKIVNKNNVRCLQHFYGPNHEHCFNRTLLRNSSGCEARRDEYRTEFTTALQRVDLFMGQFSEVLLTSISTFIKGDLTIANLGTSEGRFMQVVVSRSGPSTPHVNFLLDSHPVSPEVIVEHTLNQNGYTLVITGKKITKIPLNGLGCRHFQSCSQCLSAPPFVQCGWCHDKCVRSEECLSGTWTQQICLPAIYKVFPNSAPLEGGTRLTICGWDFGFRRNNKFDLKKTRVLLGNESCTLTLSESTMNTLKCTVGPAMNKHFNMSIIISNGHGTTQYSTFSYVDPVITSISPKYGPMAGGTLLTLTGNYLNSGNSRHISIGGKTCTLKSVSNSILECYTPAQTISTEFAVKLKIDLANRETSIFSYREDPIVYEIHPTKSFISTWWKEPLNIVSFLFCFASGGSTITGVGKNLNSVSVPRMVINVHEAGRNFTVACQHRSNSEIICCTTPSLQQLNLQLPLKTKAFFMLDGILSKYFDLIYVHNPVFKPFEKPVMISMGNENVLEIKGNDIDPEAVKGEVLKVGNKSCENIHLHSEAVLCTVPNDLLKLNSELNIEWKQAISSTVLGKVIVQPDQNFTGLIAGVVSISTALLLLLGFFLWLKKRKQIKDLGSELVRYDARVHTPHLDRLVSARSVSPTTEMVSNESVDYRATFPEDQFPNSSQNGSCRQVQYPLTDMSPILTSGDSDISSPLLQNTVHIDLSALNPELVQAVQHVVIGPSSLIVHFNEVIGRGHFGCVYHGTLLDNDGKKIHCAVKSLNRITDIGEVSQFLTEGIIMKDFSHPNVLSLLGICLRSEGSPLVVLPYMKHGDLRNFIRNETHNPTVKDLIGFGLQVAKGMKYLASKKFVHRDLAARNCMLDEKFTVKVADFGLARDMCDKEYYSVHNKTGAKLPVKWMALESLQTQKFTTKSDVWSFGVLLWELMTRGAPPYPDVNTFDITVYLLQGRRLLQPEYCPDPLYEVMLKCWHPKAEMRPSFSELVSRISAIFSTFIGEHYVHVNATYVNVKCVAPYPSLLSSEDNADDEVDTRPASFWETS
# Protocol: as §1
# MELK = target: T6, MELK (Homo sapiens, UniProt Q14680); experiment: Panel of 270 human kinases (Millipore); assay type: biochemical
# T6 construct: purchased Millipore Corporation
# T6 sequence (Q14680 whole entry): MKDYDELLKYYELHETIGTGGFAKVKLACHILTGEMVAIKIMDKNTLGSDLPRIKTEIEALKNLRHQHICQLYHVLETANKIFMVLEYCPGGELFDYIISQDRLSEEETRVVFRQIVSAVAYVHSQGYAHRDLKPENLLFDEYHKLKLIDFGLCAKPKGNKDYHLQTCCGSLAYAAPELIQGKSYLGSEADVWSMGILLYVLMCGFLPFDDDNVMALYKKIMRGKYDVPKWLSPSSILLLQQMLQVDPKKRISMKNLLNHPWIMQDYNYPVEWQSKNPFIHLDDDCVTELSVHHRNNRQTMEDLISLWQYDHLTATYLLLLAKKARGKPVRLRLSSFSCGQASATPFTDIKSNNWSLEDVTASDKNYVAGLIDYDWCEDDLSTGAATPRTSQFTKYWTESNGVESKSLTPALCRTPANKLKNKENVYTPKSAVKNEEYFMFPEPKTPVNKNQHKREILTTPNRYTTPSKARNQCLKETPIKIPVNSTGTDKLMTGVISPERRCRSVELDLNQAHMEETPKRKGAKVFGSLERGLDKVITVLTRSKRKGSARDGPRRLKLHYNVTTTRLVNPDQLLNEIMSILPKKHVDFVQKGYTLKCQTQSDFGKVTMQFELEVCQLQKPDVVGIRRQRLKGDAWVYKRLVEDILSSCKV
# Protocol: as §1
# TICs (Ovarian 2393A) = experiment: Ovarian tumor-initiating cell growth inhibition (Alamar Blue); assay type: cell-based; conditions: 144 h; Ovarian 2393A TICs, 6 days; read-out: Tumor Initiating Cell GI50 Range Ovarain 2393A
# From the text: Materials and Methods: Non-tissue or tissue cultured treated T-75 flask and 96-well plates were purchased from VWR. Vitamin B-27 supplement, MEM NEAA (minimum essential medium non essential amino acids), sodium pyruvate, L-glutamine, N2 supplement, penicillin-streptomycin and fungizone/amphotericin B were obtained from Invitrogen. Lipid mixture, heparin and EGF were purchased from Sigma; bFGF from BD Biosciences. Tumor Initiating Cells (TICs) from colon were routinely maintained using non-tissue cultured treated T-75 flasks in DMEM:F12 medium containing 0.2×B-27 supplement, 4 ug/ml heparin, 1×MEM NEAA, 1× sodium pyruvate, 1 mM glutamine, 10 pg/ul bFGF, 20 pg/ul EGF, 1×N2 supplement, lipid mixture, penicillin-streptomycin and fungizone/amphotericin B. Ovarian TICs were routinely maintained using tissue cultured treated T-75 flasks in DMEM:F12 medium containing 1×B-27 supplement, 4 ug/ml heparin, 20 pg/ul bFGF, 20 pg/ul EGF and penicillin-streptomycin.
# Assay Protocol: Compounds described herein were dissolved in DMSO and further diluted in cell culture medium for GI50 determination. Colon TICs were trypsinized and seeded into non-tissue cultured treated 96-well plates with 4,000 cells/well. After 24 h, compound was added into the cell culture at different concentrations, and the final concentration of DMSO was adjusted to 0.1%. Cells were then cultured at 37° C. for 9 days. Ovarian TICs were trypsinized and seeded into tissue cultured treated 96-well plates with 1,000 cells/well. After 24 h, compound was added into the cell culture at different concentrations, and the final concentration of DMSO was adjusted to 0.1%. Cells were then cultured at 37° C. for 6 days. Cell viability was assessed by Alamar Blue assay: 10 ul of Alamar Blue was added into each well. After 4 hours incubation at 37° C., fluorescence was recorded at excitation 544 and emission 590. GI50 (Growth inhibition) was calculated using GraphPad Prism 4.0 software.
# T1 sequence (P53779 whole entry): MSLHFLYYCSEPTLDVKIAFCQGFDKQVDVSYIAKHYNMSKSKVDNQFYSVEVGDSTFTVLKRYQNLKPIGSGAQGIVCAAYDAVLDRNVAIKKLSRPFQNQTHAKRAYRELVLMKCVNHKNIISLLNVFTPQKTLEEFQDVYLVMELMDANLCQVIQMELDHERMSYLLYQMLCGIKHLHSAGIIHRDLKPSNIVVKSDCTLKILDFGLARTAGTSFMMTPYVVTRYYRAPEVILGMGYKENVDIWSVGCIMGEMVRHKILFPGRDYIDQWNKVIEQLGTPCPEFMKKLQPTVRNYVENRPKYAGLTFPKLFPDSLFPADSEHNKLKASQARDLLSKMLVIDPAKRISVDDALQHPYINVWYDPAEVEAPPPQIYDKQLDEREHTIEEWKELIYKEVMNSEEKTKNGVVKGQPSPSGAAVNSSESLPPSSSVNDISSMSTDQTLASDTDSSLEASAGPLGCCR
SMILES,inhibition at 1 µM (JNK3) [%],inhibition at 1 µM (MUSK) [%],inhibition at 1 µM (ALK) [%],inhibition at 1 µM (MAPK2) [%],inhibition at 1 µM (Met(Y1248C)) [%],inhibition at 1 µM (MELK) [%],GI50 (TICs (Ovarian 2393A)) [nM]
"CC(C)C[C@@H](NC(=O)c1ccc2[nH]nc(-c3ccc(N4CCN(C5COC5)CC4)cc3)c2c1)c1ccccc1Cl [Example A300, (R)-N-(1-(2-chlorophenyl)-3-methylbutyl)-3-(4-(4-(oxetan-3-yl)piperazin-1-yl)phenyl)-1H-indazole-5-carboxamide]",48,54,0,5,40,51,100 to 500
CC(C)[C@H](NC(=O)c1ccc2[nH]nc(-c3ccc(OC4CC5CCC(C4)N5C4COC4)cc3)c2c1)c1ccccc1Cl (some centres unmarked) [Example A335],85,91,7,0,42,97,< 100
